These results are taken from ChEMBL document CHEMBL1177720, “Selective hexapeptide agonists and antagonists for human complement C3a receptor” (J Med Chem, 2010).

The source made the active and inactive calls. The calls are words filed in the database; no cut-off is given here. Square brackets hold non-standard residues; d marks the D form. Peptide text beside a SMILES is read from it. 1Nal = N[C@@H](Cc1cccc2ccccc12)C(=O)O; hPhe = N[C@@H](CCc1ccccc1)C(=O)O; Cha = N[C@@H](CC1CCCCC1)C(=O)O; Nle = CCCC[C@H](N)C(=O)O; Orn = NCCC[C@H](N)C(=O)O

The target of assay [1] is T1, C3a anaphylatoxin chemotactic receptor (Homo sapiens, UniProt Q16581).
T1 sequence (Q16581 whole entry): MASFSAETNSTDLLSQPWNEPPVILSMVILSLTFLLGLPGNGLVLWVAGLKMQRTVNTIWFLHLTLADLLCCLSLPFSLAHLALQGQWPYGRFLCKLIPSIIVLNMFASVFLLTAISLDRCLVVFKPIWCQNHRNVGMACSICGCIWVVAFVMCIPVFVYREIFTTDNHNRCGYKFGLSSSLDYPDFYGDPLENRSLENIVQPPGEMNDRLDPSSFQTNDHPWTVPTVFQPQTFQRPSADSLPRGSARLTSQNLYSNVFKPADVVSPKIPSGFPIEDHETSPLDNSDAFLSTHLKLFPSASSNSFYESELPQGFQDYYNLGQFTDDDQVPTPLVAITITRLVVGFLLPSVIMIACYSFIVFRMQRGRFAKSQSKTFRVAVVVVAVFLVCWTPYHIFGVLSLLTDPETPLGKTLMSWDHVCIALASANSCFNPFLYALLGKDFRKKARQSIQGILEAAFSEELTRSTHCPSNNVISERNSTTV
The assay is described as follows: Agonist activity at human C3a receptor in human U937 cells assessed as induction of intracellular calcium release. Type of assay: functional, cell-based, U-937. On the technique in general: A change in cytosolic calcium serves as a functional read-out for many receptors and channels.

The target of assay [2] is T2, C3a anaphylatoxin chemotactic receptor (Homo sapiens) (UniProt Q16581).
T2 sequence (whole entry): T1 sequence (Q16581 whole entry)
The assay is described as follows: Agonist activity at human C3a receptor in human U937 cells assessed as induction of intracellular calcium release at 1 mM. Type of assay: functional, cell-based. The settings on record: U-937.

Take `CCCC[C@H](NC(=O)[C@@H](NC(=O)[C@H](CC(C)C)NC(=O)[C@@H](N)Cc1ccccc1)[C@@H](C)O)C(=O)N[C@@H](C)C(=O)N[C@@H](CCCN=C(N)N)C(=O)O` (H-FLT[Nle]AR-OH): the EC50 in assay [1] (read-out: EC50) was 2.7 µM.
Regarding `C[C@H](NC(=O)[C@H](Cc1c[nH]c2ccccc12)NC(=O)[C@@H]1CCCN1C(=O)[C@H](CCCCN)NC(=O)[C@@H](N)Cc1ccccc1)C(=O)N[C@@H](CCCNC(=N)N)C(=O)O` (H-FKPWAR-OH), the outcome in assay [2] was inactive.
The same measure, in the same setting: as for `CC(C)C[C@H](NC(=O)[C@@H](N)Cc1ccccc1)C(=O)N[C@H](C(=O)N[C@H](CC1CCCCC1)C(=O)N[C@@H](C)C(=O)N[C@@H](CCCNC(=N)N)C(=O)O)[C@@H](C)O`, the entry is “inactive”.
`CC(C)C[C@H](NC(=O)[C@@H](N)Cc1ccccc1)C(=O)N[C@H](C(=O)N[C@@H](CC(C)C)C(=O)N1CCC[C@H]1C(=O)N[C@@H](CCCN=C(N)N)C(=O)O)[C@@H](C)O` (H-FLTLPR-OH): the EC50 in assay [1] (read-out: EC50) amounted to 29 µM.
On to `CC(C)C[C@H](NC(=O)[C@@H]1CCCN1C(=O)[C@H](CCCCN)NC(=O)[C@@H](N)Cc1c[nH]c2ccccc12)C(=O)N[C@@H](C)C(=O)N[C@@H](CCCNC(=N)N)C(=O)O` (H-WKPLAR-OH), for which the result in assay [2] was inactive.
Consider `CC(C)C[C@H](NC(=O)[C@H](CC(C)C)NC(=O)[C@@H](NC(=O)[C@H](CC(C)C)NC(=O)[C@@H](N)Cc1ccccc1)[C@@H](C)O)C(=O)N[C@@H](CCCNC(=N)N)C(=O)O` (H-FLTLLR-OH), for which the result in assay [2] was inactive.
Regarding `CC(C)C[C@H](NC(=O)[C@@H](NC(=O)[C@H](CC(C)C)NC(=O)[C@@H](N)CCc1ccccc1)[C@@H](C)O)C(=O)N[C@@H](C)C(=O)N[C@@H](CCCNC(=N)N)C(=O)O` (H-[hPhe]LTLAR-OH), the EC50 in assay [1] (read-out: EC50) stood at 11 µM.
As for `C[C@H](NC(=O)[C@H](CC1CCCCC1)NC(=O)[C@@H]1CCCN1C(=O)[C@H](CCCCN)NC(=O)[C@@H](N)Cc1ccccc1)C(=O)N[C@@H](CCCNC(=N)N)C(=O)O` (H-FKP[Cha]AR-OH), the outcome in assay [2] was inactive.
In the case of `CC(C)C[C@H](NC(=O)[C@@H](NC(=O)[C@H](CC(C)C)NC(=O)[C@@H](N)Cc1ccccc1)C(C)C)C(=O)N[C@@H](C)C(=O)N[C@H](CCCN=C(N)N)C(=O)O`, the EC50 in assay [1] (read-out: EC50) is 57 µM.
As to `CC(C)C[C@H](NC(=O)[C@H](C)NC(=O)[C@H](CC(C)C)NC(=O)[C@@H](N)Cc1ccccc1)C(=O)N[C@@H](C)C(=O)N[C@@H](CCCNC(=N)N)C(=O)O` (H-FLALAR-OH), the EC50 in assay [1] (read-out: EC50) is 101 µM; in assay [1] (read-out: pEC50 (converted)) it was 1.1 µM.
On to `CC(C)C[C@H](NC(=O)[C@@H]1CCCN1C(=O)[C@H](CCCN)NC(=O)[C@@H](N)Cc1ccccc1)C(=O)N[C@@H](C)C(=O)N[C@@H](CCCNC(=N)N)C(=O)O` (H-F[Orn]PLAR-OH), for which the result in assay [2] was inactive.
Still for that read-out and setting: then `CC(C)C[C@H](NC(=O)[C@@H]1CCCN1C(=O)[C@H](CCCCN)NC(=O)[C@@H](N)Cc1cnc[nH]1)C(=O)N[C@@H](C)C(=O)N[C@@H](CCCNC(=N)N)C(=O)O` (H-HKPLAR-OH), with “inactive”.
Consider `CCCC[C@H](NC(=O)[C@@H]1CCCN1C(=O)[C@H](CCCCN)NC(=O)[C@@H](N)Cc1ccccc1)C(=O)N[C@@H](C)C(=O)N[C@@H](CCCN=C(N)N)C(=O)O` (H-FKP[Nle]AR-OH), for which the EC50 in assay [1] (read-out: EC50) stood at 38 µM.
The same measure, in the same setting: as for `CC(C)C[C@H](NC(=O)[C@@H]1CCCN1C(=O)[C@H](CC(C)C)NC(=O)[C@@H](N)Cc1ccccc1)C(=O)N[C@@H](C)C(=O)N[C@@H](CCCNC(=N)N)C(=O)O` (H-FLPLAR-OH), the figure is 0.42 µM.
On the same count and under the same terms, as for `CC(C)C[C@H](NC(=O)[C@H](CO)NC(=O)[C@H](CC(C)C)NC(=O)[C@@H](N)Cc1ccccc1)C(=O)N[C@@H](C)C(=O)N[C@@H](CCCNC(=N)N)C(=O)O` (H-FLSLAR-OH), the figure is 0.36 µM; as for `CC(C)C[C@H](NC(=O)[C@@H](NC(=O)[C@H](CCCCN)NC(=O)[C@@H](N)Cc1ccccc1)[C@@H](C)O)C(=O)N[C@@H](C)C(=O)N[C@@H](CCCNC(=N)N)C(=O)O` (H-FKTLAR-OH), 3.8 µM; as for `CC(C)C[C@H](NC(=O)[C@@H](NC(=O)[C@H](CCCNC(=N)N)NC(=O)[C@@H](N)Cc1ccccc1)[C@@H](C)O)C(=O)N[C@@H](C)C(=O)N[C@@H](CCCNC(=N)N)C(=O)O` (H-FRTLAR-OH), 6.8 µM.
Still for that read-out and setting: then `CSCC[C@H](NC(=O)[C@@H]1CCCN1C(=O)[C@H](CCCCN)NC(=O)[C@H](Cc1cnc[nH]1)NC(=O)[C@H](CO)NC(=O)[C@@H](N)Cc1ccc(O)cc1)C(=O)N1CCC[C@H]1C(=O)N[C@@H](CC(C)C)C(=O)N[C@H](C)C(=O)N[C@@H](CCCN=C(N)N)C(=O)O`, with 5.7 µM.
For `CC(C)C[C@H](NC(=O)[C@@H](NC(=O)[C@H](CC(C)C)NC(=O)[C@@H](N)CCCNC(=N)N)[C@@H](C)O)C(=O)N[C@@H](C)C(=O)N[C@@H](CCCNC(=N)N)C(=O)O` (H-RLTLAR-OH), the result in assay [2] was inactive.
Turning to `CC(C)C[C@H](NC(=O)[C@@H]1CCCN1C(=O)[C@H](CCc1ccccc1)NC(=O)[C@@H](N)Cc1ccccc1)C(=O)N[C@@H](C)C(=O)N[C@@H](CCCN=C(N)N)C(=O)O` (H-F[hPhe]PLAR-OH), the EC50 in assay [1] (read-out: EC50) stood at 1.1 µM.
The same measure, in the same setting: as for `CC(C)C[C@H](NC(=O)[C@@H]1CCCN1C(=O)[C@H](Cc1ccccc1)NC(=O)[C@@H](N)Cc1ccccc1)C(=O)N[C@@H](C)C(=O)N[C@@H](CCCNC(=N)N)C(=O)O` (H-FFPLAR-OH), the figure is 5.4 µM; as for `CC(C)C[C@H](NC(=O)[C@@H]1CCCN1C(=O)[C@H](Cc1cccc2ccccc12)NC(=O)[C@@H](N)Cc1ccccc1)C(=O)N[C@@H](C)C(=O)N[C@@H](CCCNC(=N)N)C(=O)O` (H-F[1Nal]PLAR-OH), 0.72 µM.
Turning to `CC(C)C[C@H](NC(=O)[C@@H]1CCCN1C(=O)[C@H](CCCCN)NC(=O)[C@@H](N)CC1CCCCC1)C(=O)N[C@@H](C)C(=O)N[C@@H](CCCNC(=N)N)C(=O)O` (H-[Cha]KPLAR-OH), the outcome in assay [2] was inactive.
In the case of `CC[C@H](C)[C@H](NC(=O)[C@@H](NC(=O)[C@H](CC(C)C)NC(=O)[C@@H](N)Cc1ccccc1)[C@@H](C)O)C(=O)N[C@@H](C)C(=O)N[C@@H](CCCNC(=N)N)C(=O)O` (H-FLTIAR-OH), the result in assay [2] was inactive.
`CC(C)C[C@H](NC(=O)[C@@H](NC(=O)[C@H](CC(C)C)NC(=O)[C@@H](N)Cc1ccccc1)[C@@H](C)O)C(=O)N[C@@H](C)C(=O)N[C@@H](CCCN=C(N)N)C(N)=O` (H-FLTLAR-NH2): the EC50 in assay [1] (read-out: EC50) is 37 µM.
Same read-out and setting: as for `CC(C)C[C@H](NC(=O)[C@@H]1CCCN1C(=O)[C@H](CCCCN)NC(=O)[C@@H](N)Cc1ccccc1)C(=O)N[C@@H](Cc1c[nH]c2ccccc12)C(=O)N[C@@H](CCCN=C(N)N)C(=O)O` (H-FKPLWR-OH), the figure is 25 µM; as for `CC(C)C[C@H](NC(=O)[C@@H]1CCCN1C(=O)[C@H](CCCCN)NC(=O)[C@@H](N)Cc1ccccc1)C(=O)N[C@@H](C)C(=O)N[C@@H](CCCNC(=N)N)C(=O)O` (H-FKPLAR-OH), 33 µM.
Same read-out and setting: then `CC(C)C[C@H](NC(=O)[C@@H]1CCCN1C(=O)[C@H](CCC(N)=O)NC(=O)[C@@H](N)Cc1ccccc1)C(=O)N[C@@H](C)C(=O)N[C@@H](CCCNC(=N)N)C(=O)O` (H-FQPLAR-OH), with 5.3 µM.
The same measure, in the same setting: as for `CC(C)C[C@H](NC(=O)[C@@H](NC(=O)[C@H](CC(C)C)NC(=O)[C@@H](N)Cc1ccc(O)cc1)[C@@H](C)O)C(=O)N[C@@H](C)C(=O)N[C@@H](CCCN=C(N)N)C(=O)O` (H-YLTLAR-OH), the figure is 2.5 µM.
For the molecule `CC(C)C[C@H](NC(=O)[C@@H]1CCCN1C(=O)[C@H](CC1CCCCC1)NC(=O)[C@@H](N)Cc1ccccc1)C(=O)N[C@@H](C)C(=O)N[C@@H](CCCNC(=N)N)C(=O)O` (H-F[Cha]PLAR-OH), the EC50 in assay [1] (read-out: EC50) amounted to 0.78 µM.
For `CC(C)C[C@H](NC(=O)[C@H](C)NC(=O)[C@H](Cc1c[nH]c2ccccc12)NC(=O)[C@@H](N)Cc1ccccc1)C(=O)N[C@@H](C)C(=O)N[C@@H](CCCN=C(N)N)C(=O)O` (H-FWALAR-OH), the EC50 in assay [1] (read-out: EC50) came to 1.2 µM.
Still for that read-out and setting: as for `N=C(N)NCCC[C@@H](NC(=O)[C@H](CC1CCCCC1)NC(=O)[C@@H](CC1CCCCC1)NC(=O)[C@@H]1CCCN1C(=O)[C@H](CCCCN)NC(=O)[C@@H](N)Cc1ccccc1)C(N)=O`, the figure is 2.2 µM.
Same read-out and setting: then `CCCC[C@H](NC(=O)[C@@H](N)Cc1ccccc1)C(=O)N[C@H](C(=O)N[C@@H](CC(C)C)C(=O)N[C@@H](C)C(=O)N[C@@H](CCCN=C(N)N)C(=O)O)[C@@H](C)O` (H-F[Nle]TLAR-OH), with 0.31 µM.
Turning to `CC(C)C[C@H](NC(=O)CNC(=O)[C@H](Cc1c[nH]c2ccccc12)NC(=O)[C@@H](N)Cc1ccccc1)C(=O)N[C@@H](C)C(=O)N[C@@H](CCCNC(=N)N)C(=O)O` (H-FWGLAR-OH), the EC50 in assay [1] (read-out: EC50) is 0.47 µM.
Turning to `CC(=O)N[C@@H](Cc1ccccc1)C(=O)N[C@@H](CC(C)C)C(=O)N[C@H](C(=O)N[C@@H](CC(C)C)C(=O)N[C@@H](C)C(=O)N[C@@H](CCCNC(=N)N)C(=O)O)[C@@H](C)O` (Ac-FLTLAR-OH), in assay [1] (read-out: EC50), the EC50 turned out to be 0.52 µM.
Same read-out and setting: as for `CC(C)C[C@H](NC(=O)[C@H](CO)NC(=O)[C@H](Cc1c[nH]c2ccccc12)NC(=O)[C@@H](N)Cc1ccccc1)C(=O)N[C@@H](C)C(=O)N[C@@H](CCCNC(=N)N)C(=O)O` (H-FWSLAR-OH), the figure is 0.49 µM; as for `CCCC[C@H](NC(=O)[C@@H](N)Cc1ccccc1)C(=O)N1CCC[C@H]1C(=O)N[C@@H](CC(C)C)C(=O)N[C@@H](C)C(=O)N[C@@H](CCCN=C(N)N)C(=O)O` (H-F[Nle]PLAR-OH), 1.8 µM.
